Assay results from publication PMC9014412 (Journal of medicinal chemistry, 2022).
Like-named read-outs stand apart in the source and are kept apart here.

Columns and labels:
H3K56ac = experiment: Histone H3 Lys 56 acetylation (H3K56ac) western blotting; assay type: cell-based, human; details: HCT116 cells, 24 h, screen at 0.1, 1, 10 μM; relative to DMSO, CI-994 and 1 at 10 μM
Description: (§1) Supporting Information: Biology
(§2) Representative blots of two independent biological replicates.

Solubility observations = assay type: physicochemical; details: aqueous
HDAC1 = HDAC1 (Homo sapiens, UniProt Q13547); experiment: HDAC1 degradation by quantitative western blotting in HCT116 cells; details: for HDAC1 degradation in initial screen (in words): HCT116 cells, 24 h, 0.1, 1 and 10 μM, compared with 1 at 10 μM
Chain of HDAC1 (Q13547 whole entry): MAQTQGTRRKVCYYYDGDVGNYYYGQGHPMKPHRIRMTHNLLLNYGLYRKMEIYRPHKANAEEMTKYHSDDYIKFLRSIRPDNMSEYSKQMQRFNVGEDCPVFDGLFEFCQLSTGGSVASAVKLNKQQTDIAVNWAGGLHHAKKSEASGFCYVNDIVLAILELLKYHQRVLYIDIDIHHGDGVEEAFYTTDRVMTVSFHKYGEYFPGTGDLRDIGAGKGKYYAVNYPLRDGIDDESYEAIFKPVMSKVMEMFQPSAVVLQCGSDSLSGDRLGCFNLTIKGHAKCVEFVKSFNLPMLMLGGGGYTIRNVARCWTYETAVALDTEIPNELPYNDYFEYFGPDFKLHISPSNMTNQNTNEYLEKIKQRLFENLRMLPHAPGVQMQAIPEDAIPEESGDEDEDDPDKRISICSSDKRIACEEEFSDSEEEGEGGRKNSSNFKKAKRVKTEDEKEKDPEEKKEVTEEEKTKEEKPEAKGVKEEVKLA
Method: (§11) Initially, each PROTAC was tested at 0.1, 1, and 10 μM in HCT116 cells for 24 h; then, cell extracts were prepared and evaluated for HDAC1/2 and 3 degradation by quantitative western blotting.
(§12) This cell line was incubated at 37 °C with 5% CO2.
(§13) HCT116 cells were seeded into 6-well plates (4 × 10^5 cells/well for 24 h, 2 × 10^5 cells/well for 48 h) for 24 h and then treated with DMSO or compounds at the indicated concentrations in fresh medium (5 mL total). After desired treatment time, the cells were harvested and then lysed in lysis buffer (50 mM Tris-HCl, 150 mM NaCl, 0.5% NP-40, 0.5% Triton X-100) supplemented with a protease inhibitor (Sigma, P8340). The suspension was incubated on ice for 30 min and centrifuged (18,000 rcf, 15 min, 4 °C); then, the supernatant was collected, and protein concentrations were quantified via Bradford Assay using Protein Assay Dye Reagent Concentrate (BIO-RAD). […] PageRuler Plus Prestained Ladder was used for size standards. After gel electrophoresis at 140 V for 90 min, the separated proteins were transferred onto a nitrocellulose membrane at 30 V for 60 min. The membranes were probed with primary antibodies (see the Supporting Information) for 60−90 min. Blots were developed with complimentary IRDye-conjugated secondary antibodies, and the bands were visualized using an Odyssey infrared imaging system. Image processing and band intensity quantification were performed using Image Studio Lite.

HDAC2 = HDAC2 (Homo sapiens, UniProt Q92769); experiment: HDAC2 degradation by quantitative western blotting in HCT116 cells; design: Dmax: dose or concentration left out as unconfirmed; details: for HDAC2 degradation in initial screen (in words): HCT116 cells, 24 h, 0.1, 1 and 10 μM, compared with 1 at 10 μM
Chain of HDAC2 (Q92769 whole entry): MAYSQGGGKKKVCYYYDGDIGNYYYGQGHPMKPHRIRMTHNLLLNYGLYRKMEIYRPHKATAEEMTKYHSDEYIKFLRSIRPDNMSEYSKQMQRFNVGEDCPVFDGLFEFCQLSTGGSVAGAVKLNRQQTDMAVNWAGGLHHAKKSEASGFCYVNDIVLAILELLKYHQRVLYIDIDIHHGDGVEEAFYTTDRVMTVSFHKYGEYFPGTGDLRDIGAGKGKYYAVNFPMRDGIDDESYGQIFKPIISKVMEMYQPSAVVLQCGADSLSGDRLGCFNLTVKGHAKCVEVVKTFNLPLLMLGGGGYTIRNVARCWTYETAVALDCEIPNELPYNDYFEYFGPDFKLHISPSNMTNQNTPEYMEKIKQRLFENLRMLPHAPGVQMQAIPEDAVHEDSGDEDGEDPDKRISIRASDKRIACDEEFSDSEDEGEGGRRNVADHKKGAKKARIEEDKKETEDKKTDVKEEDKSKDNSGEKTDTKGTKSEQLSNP
Method: as §11, §12, §13

[1] = molecular target: T1, HDAC1-CoREST-LSD1 complex (Homo sapiens, UniProt Q13547); experiment: Fluorescent HDAC assay with purified HDAC1-CoREST-LSD1 complex; assay type: biochemical; details: Boc-(Ac)Lys-AMC substrate
T1 construct: made in house
T1 sequence (Q13547 whole entry, other chains not shown): as the sequence (Q13547 whole entry) above
T1 sequence (Q9UKL0 86-485 partner limits assumed, other chains not shown): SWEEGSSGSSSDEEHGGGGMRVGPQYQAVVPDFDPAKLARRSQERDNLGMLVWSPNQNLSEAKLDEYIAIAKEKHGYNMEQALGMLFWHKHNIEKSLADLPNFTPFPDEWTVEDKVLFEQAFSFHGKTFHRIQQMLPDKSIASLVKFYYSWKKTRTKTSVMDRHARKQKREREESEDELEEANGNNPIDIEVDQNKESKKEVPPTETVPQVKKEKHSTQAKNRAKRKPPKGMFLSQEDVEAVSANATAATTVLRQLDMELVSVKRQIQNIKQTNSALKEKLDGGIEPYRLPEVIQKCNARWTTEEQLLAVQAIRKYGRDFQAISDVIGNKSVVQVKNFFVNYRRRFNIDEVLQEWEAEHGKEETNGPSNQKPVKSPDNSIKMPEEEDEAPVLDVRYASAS
Method: (§3) 2. In Vitro HDAC Assay with Class I HDAC Complexes
(§4) Histone Deacetylase Assay. Inhibition experiments against HDAC1-CoREST-LSD1, HDAC2-CoREST-LSD1 and HDAC3-SMRT-DAD were conducted using a fluorescent HDAC assay. The assays were carried out utilising a black 96-well plates (Corning) with a reaction volume of 50 µL. HDAC complexes were expressed and purified as described previously.1,2 100 µM of Boc- (Ac)Lys-AMC was used as a substrate in each well. All determinations were performed in triplicate. The inhibitors/PROTACs were dissolved at 50 mM in DMSO, and then further diluted with 10% DMSO HDAC assay buffer (10% DMSO, 50 mM Tris pH 7.5, 50 mM NaCl, 0.1 mg/mL BSA) to micromolar concentrations. 1:3 serial dilutions were then carried out using 10% DMSO HDAC assay buffer to afford range of concentrations. 10 µL of each of these solutions were […]
(§5) assay buffer (50 mM Tris pH 7.5, 50 mM NaCl, 0.1 mg/mL BSA). The plate was then incubated at 20 °C, 100 RPM for 1 hour. After incubation, 10 µL of the Boc-(Ac)Lys-AMC substrate, dissolved in HDAC assay buffer, was added to each well. […] Fluorescence intensity was determined […]
(§6) IC 50 values were calculated through the GraphPad Prism 7 software by non-linear regression, log (inhibitor) vs. response – variable slope […]

[2] = molecular target: T2, HDAC2-CoREST-LSD1 complex (Homo sapiens, UniProt Q92769); experiment: Fluorescent HDAC assay with purified HDAC2-CoREST-LSD1 complex; assay type: biochemical; details: Boc-(Ac)Lys-AMC substrate
T2 construct: made in house
T2 sequence (Q92769 whole entry, other chains not shown): as the sequence (Q92769 whole entry) above
T2 sequence (Q9UKL0 86-485 partner limits assumed, other chains not shown): as the sequence (Q9UKL0 86-485 partner limits assumed, other chains not shown) above
Method: as §3, §4, §5, §6

HDAC3-SMRT complex = molecular target: T3, HDAC3-SMRT complex (Homo sapiens, UniProt O15379); experiment: Fluorescent HDAC assay with purified HDAC3-SMRT complex; assay type: biochemical; details: Boc-(Ac)Lys-AMC substrate
T3 construct: made in house
T3 sequence (O15379 whole entry): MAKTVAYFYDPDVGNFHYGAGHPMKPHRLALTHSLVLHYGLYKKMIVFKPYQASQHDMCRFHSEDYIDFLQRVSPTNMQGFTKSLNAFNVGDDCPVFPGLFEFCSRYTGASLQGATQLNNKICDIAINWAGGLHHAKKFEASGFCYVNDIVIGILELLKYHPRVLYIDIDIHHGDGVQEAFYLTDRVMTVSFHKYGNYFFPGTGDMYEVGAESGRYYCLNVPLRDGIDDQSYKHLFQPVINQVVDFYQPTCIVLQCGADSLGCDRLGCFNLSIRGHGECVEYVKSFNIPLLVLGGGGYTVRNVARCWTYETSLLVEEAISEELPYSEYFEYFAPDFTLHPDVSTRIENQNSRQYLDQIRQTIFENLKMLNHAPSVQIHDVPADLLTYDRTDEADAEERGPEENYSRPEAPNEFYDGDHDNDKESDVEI
T3 sequence (Q9Y618 389-480 partner limits assumed): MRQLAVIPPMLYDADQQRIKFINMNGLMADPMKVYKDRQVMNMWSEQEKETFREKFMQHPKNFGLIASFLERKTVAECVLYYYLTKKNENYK
Method: as §3, §4, §5, §6

HCT116 cells [3] = experiment: CellTiter-Glo 2.0 cell viability assay; assay type: cell-based, human
Method: CellTiter-Glo 2.0 Reagent (Promega UK Ltd, G9242) was equilibrated to room temperature and added to the wells in a ratio of 1 volume reagent:5 volumes medium. Background luminescence was determined using medium alone plus reagent. The plates were shaken on an orbital shaker for 2 min to induce cell lysis and then incubated in the dark at room temperature for 10 min to stabilize the luminescent signal. Luminescence was captured on a CLARIOstar plate reader (BMG Labtech Ltd, UK) at 22 °C to give relative luminescence units and analyzed using BMG Labtech software. EC50 values were calculated by nonlinear regression (Hill plot) and log (inhibitor) versus response—variable slopes (four parameters) using GraphPad Prism 9 software. Each compound dose response was repeated as four independent biological replicates (n = 4).

HCT116 cells [4] = experiment: RNA-seq differential gene expression; assay type: cell-based, human; details: 10 μM, 24 h
Method: RNA-seq analysis was performed in HCT116 cells treated with PROTACs (JPS004, JPS014, JPS016, JPS035, and JPS036) for 24 h at 10 μM concentration. Total RNA was isolated using a Tri-reagent RNA miniprep kit (Zymogen; R2053), before RNA integrity, size, and purity were assessed using an Agilent Bioanalyzer. Library preparation and sequencing were performed by Novogene, using a NovaSeq 6000 PE150 platform at a read depth of 20 million. For bioinformatics analysis, see the Supporting Information. RNA-seq data from the study was deposited at the GEO database (GSE197985).
3. Apoptosis Flow Cytometry Assay
Figure S9. Apoptosis flow cytometry assay with 2.5 µM and 10 µM treatments of JPS016 and JPS016NC at 24 and 48 hours. Error bars represent the average of three independent biological replicates.
µM µM µM 5 µM µM µM µM µM µM µM
4. RNA Seq – Bioinformatics Analysis
Paired-end reads were aligned using HISAT2 (v2.2.1) and mapped to the HISAT2 GRCh38_tran index build.3 Quality control was performed on raw and aligned data using FASTQC (v0.11.9) and summarised using MultiQC (v1.11).4,5 The resulting SAM files were subsequently sorted and converted to the BAM format before indexing with SAMtools (v 1.12).6 Reads were then counted across the exons of each gene and gene loci annotated using command-line program LiBiNorm (v2.4); run in HT-Seq compatibility mode (-z) and provided with the ‘Homosapiens.GRCh38.104’ GTF file obtained from Ensembl. LiBiNorm was run using the following parameters: LiBiNorm count -z -r pos -i gene_name -s reverse <BAM file> Homo_sapiens.GRCh38.104.gtf <OUTPUT file>.7 Default normalisation of expression values and differential gene analysis was then carried out using the R package DESeq2.8 Significance thresholds were set as a p-adjusted value < 0.01 and a fold change > 2 (log2 fold change > 1) and implemented for down-stream analysis, with all plots produced in R. Gene ontology (GO) analysis was carried out using the Bioconductor package topGO using the human genome-wide annotation package to map gene identifiers to the relevant org.Hs.eg.db […]

HDAC3 = HDAC3 (Homo sapiens, UniProt O15379); experiment: HDAC3 degradation by quantitative western blotting in HCT116 cells
Chain of HDAC3 (O15379 whole entry): as the sequence (O15379 whole entry) above
Chain of HDAC3 (Q9Y618 389-480 partner limits assumed): as the sequence (Q9Y618 389-480 partner limits assumed) above
Method: as §11, §12, §13

LSD1 = LSD1 protein levels by western blotting; assay type: cell-based, human; details: HCT116 cells, after 48 h
Method: as §1, §2
(§7) Figure S6. Representative Western blot of HDAC1/2/3 levels after 24 hours and 48 hours with 1
(§8) (JPS004), 7 (JPS014) and 9 (JPS016), and bar graph representation of HDAC1-3, LSD1 and Sin3a
(§9) protein levels after 24 hours and 48 hours as the average of three independent biological replicates.
(§10) (also on this page, place not known: HDAC1 24hHDAC2 24hHDAC3 24hHDAC1 48hHDAC2 48hHDAC3 %Protein Levels Remaining (Relative to DMSO) %Protein Levels Remaining (Relative to DMSO))

SIN3A = SIN3A protein levels by western blotting; assay type: cell-based, human; details: HCT116 cells, 10 μM, after 24 h
Method: as §1, §2, §7, §8, §9, §10

HCT116 cells [5] = experiment: Apoptosis flow cytometry assay (sub-G1 population); assay type: cell-based, human; details: 10 μM
Method: HCT116 cells were seeded (5 × 10^5 cells/plate) into 6 cm tissue culture plates for 24 h and then treated with 10 μM compounds (with 0.1% DMSO vehicle) or 0.1% DMSO control in fresh medium (5 mL total). The cells were then exposed to the compounds (10 μM) for 24 or 48 h. To harvest the cells, the medium was transferred from each sample plate to 15 mL centrifuge tubes. Each well was washed with 1 mL of phosphate-buffered saline (PBS) and the PBS was transferred to the corresponding 15 mL centrifuge tube. The plates were trypsinized, 2 mL of medium was added, and the cells and medium were transferred to the corresponding 15 mL centrifuge tubes. The harvested cells were pelleted by centrifugation (200g, 5 min, 4 °C), washed with 1 mL PBS, and then pelleted again by centrifugation (200g, 5 min, 4 °C). The supernatant was discarded, and the pellets resuspended in 1 mL of 70% ethanol (ice-cold) to fix the cells. Samples were stored at 4 °C and analyzed within two weeks. PBS (1 mL) was added to each sample tube containing cells fixed in 70% ethanol. The cells were pelleted by centrifugation (200g, 5 min, 4 °C), and the PBS wash was repeated. The supernatant was discarded, and the pellet was resuspended in 50 μL of RNase A (1 μg/mL, Thermo Scientific, EN0531) and left at room temperature for 10 min to digest contaminating RNA. A total of 500 μL of PI stain (50 μg/mL, Invitrogen, P3566) was added to each tube, and the tubes were incubated in the dark, at room temperature, for 30 min. Results were acquired on a BD FACSCanto II flow cytometer and analyzed using BD FACSdiva software. Sub-G1 population was calculated as a percentage of total cell population. Two independent biological replicates were performed.

[6] = p-adjusted < 0.01, log2 fold change > 1

## Cc1ncsc1-c1ccc(CNC(=O)[C@@H]2C[C@@H](O)CN2C(=O)[C@@H](NC(=O)CCCCCCCCCCCCC(=O)Nc2ccc(C(=O)Nc3ccccc3N)cc2)C(C)(C)C)cc1 [Compound 5, N1-(4-((2-Aminophenyl)carbamoyl)phenyl)-N14-((S)-1-((2S,4R)-4-hydroxy-2-((4-(4-methylthiazol-5-yl)benzyl)carbamoyl)-pyrrolidin-1-yl)-3,3-dimethyl-1-oxobutan-2-yl)tetradecanediamide]
H3K56ac
  H3K56ac levels (in words): only a modest increase in H3K56ac compared to the shorter linkers
Solubility observations
  Solubility (in words): solubility issues
HDAC1
  HDAC1 degradation in initial screen (in words): comparable HDAC1 and HDAC2 degradation to the shorter linkers
HDAC2
  HDAC2 degradation in initial screen (in words): comparable HDAC1 and HDAC2 degradation to the shorter linkers

## CC(=O)N[C@H](C(=O)N1C[C@H](O)C[C@H]1C(=O)NCc1ccc(-c2scnc2C)cc1OCCCCCCCCCCCC(=O)Nc1ccc(C(=O)Nc2ccccc2N)cc1)C(C)(C)C [Compound 21, (2S,4R)-1-((S)-2-Acetamido-3,3-dimethylbutanoyl)-N-(2-((12-((4-((2-aminophenyl)carbamoyl)phenyl)amino)-12-oxododecyl)oxy)-4-(4-methylthiazol-5-yl)benzyl)-4-hydroxypyrrolidine-2-carboxamide]
[1]
  IC50: 1.81 ± 0.54 µM
[2]
  IC50: 3.46 ± 0.78 µM
HDAC3-SMRT complex
  IC50: 3.81 ± 0.79 µM
HCT116 cells [3]; CellTiter-Glo and flow cytometry
  Effect on cell viability (in words): little effects on cell viability
HCT116 cells [4]; compared with the more potent degraders
  Fold less DEGs: approximately 10 fold
H3K56ac
  H3K56ac levels (in words): increased H3K56ac levels significantly but not to the same levels as 1
HDAC1
  HDAC1 degradation in initial screen (in words): comparable HDAC1 and HDAC2 degradation to 1
HDAC1; HCT-116, read-out: Dmax HDAC1
  Dmax: 68%
HDAC2
  HDAC2 degradation in initial screen (in words): comparable HDAC1 and HDAC2 degradation to 1
HDAC2; HCT-116, read-out: Dmax HDAC2
  Dmax: 49%
HDAC3; HCT116 cells, 24 h, 0.01-10 μM
  HDAC3 dose-response behaviour (hook effect): exhibit a standard dose response curve for HDAC3
HDAC3; HCT-116, read-out: Dmax HDAC3
  Dmax: 76%

## Cc1ncsc1-c1ccc(CNC(=O)[C@@H]2C[C@@H](O)CN2C(=O)[C@@H](NC(=O)COCCCCCCCCCOCC(=O)Nc2ccc(C(=O)Nc3ccccc3N)cc2)C(C)(C)C)cc1 [Compound 9, (2S,4R)-1-((S)-2-(2-((9-(2-((4-((2-Aminophenyl)carbamoyl)-phenyl)amino)-2-oxoethoxy)nonyl)oxy)acetamido)-3,3-dimethylbutanoyl)-4-hydroxy-N-(4-(4-methylthiazol-5-yl)benzyl)-pyrrolidine-2-carboxamide]
HCT116 cells [3]; Homo sapiens, HCT-116, 48 h, 48 h
  EC50: 5.2 ± 0.6 µM
HCT116 cells [4]; [6]
  Number of downregulated DEGs: 1477
  Number of upregulated DEGs: 2464
H3K56ac
  H3K56ac levels (in words): increased H3K56ac levels to the same levels as CI-994
LSD1
  LSD1 levels: approximately 40 % of controls
SIN3A
  SIN3A levels (abundance): 60 % abundance
HCT116 cells [5]; after 24 h
  Percentage of cells in sub-G1 phase (in words): highest percentage of cells in the sub-G1 phase
HCT116 cells [5]; after 48 h
  Percentage of cells in sub-G1 phase (in words): highest percentage of cells in the sub-G1 phase
HDAC2
  HDAC2 degradation in initial screen (in words): marginally increased compared to 1 at 10 μM
HDAC2; HCT-116, read-out: Dmax HDAC2
  Dmax: 45%
HDAC2; HCT-116, read-out: Dmax HDAC2 in time course
  Dmax: 51%
